SMILES strings stand for the structures.

The assay has as its target human PAD4 (hPAD4) (Homo sapiens, UniProt Q9UM07). The assay can be described thus: RFMS human PAD4 functional assay (rapid-fire mass spectrum). It counts as biochemical. The settings on record: 5 nM hPAD4 enzyme, 250 μM BAEE, 50 μM Calcium; 30 min preincubation, 90 min reaction at 37° C. Summed up:
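PAD4 (10 nM) preincubated 30 min with compound (top final 50 μM), then BAEE substrate added in pH 7.5 HEPES buffer with DTT, 50 μM calcium, TPEN; 90 min at 37° C. After TCA quench, citrulline derivatized with phenyl glyoxal (4 mM final, 30 min, 37° C) and quantified by RapidFire MS against internal standard.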

Chain of human PAD4 (hPAD4) (Q9UM07 whole entry): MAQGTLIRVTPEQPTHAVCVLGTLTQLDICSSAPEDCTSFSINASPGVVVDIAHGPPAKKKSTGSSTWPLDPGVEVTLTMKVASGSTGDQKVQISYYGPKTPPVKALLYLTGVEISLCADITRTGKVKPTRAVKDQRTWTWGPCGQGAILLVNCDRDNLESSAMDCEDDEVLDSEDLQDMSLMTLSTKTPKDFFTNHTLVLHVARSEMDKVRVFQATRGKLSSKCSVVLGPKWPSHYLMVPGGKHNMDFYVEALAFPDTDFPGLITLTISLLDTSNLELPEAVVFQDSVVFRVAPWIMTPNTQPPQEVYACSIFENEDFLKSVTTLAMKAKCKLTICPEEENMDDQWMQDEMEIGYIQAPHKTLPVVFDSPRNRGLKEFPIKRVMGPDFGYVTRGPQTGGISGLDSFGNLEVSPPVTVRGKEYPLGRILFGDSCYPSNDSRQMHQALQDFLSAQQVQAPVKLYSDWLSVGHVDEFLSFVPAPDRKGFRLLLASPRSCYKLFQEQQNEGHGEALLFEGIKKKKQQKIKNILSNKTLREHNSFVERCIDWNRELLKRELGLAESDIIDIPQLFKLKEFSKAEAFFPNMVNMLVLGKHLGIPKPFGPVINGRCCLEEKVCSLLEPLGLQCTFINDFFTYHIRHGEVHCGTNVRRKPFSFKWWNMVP

As a reminder, the IC50 is the concentration that gives 50% inhibition. For the compound `COc1cc(C(=O)N2C[C@H]3CC[C@@H]2[C@@H]3N)cc2nc(-c3cc4ccc(Cl)cc4n3C)n(CC3CN(c4ccnc(C)n4)C3)c12` [Example 45, (1R,4R,7R)-2-[2-(6-chloro-1-methyl-1H-indol-2-yl)-7-methoxy-1-{[1-(2-methylpyrimidin-4-yl)azetidin-3-yl]methyl}-1H-1,3-benzodiazole-5-carbonyl]-2-azabicyclo[2.2.1]heptan-7-amine], the IC50 stood at 114 nM. The result for `COc1cc(C(=O)N2CC3CCC2[C@@H]3N)cc2nc(-c3cccn3CC3CC3)n(CC3CN(c4cncc(C#N)n4)C3)c12` (stereo partly drawn) [Example 313, 6-[3-({5-[(1R,4R,7R)-7-amino-2 azabicyclo[2.2.1]heptane-2-carbonyl]-2-[1-(cyclopropylmethyl)-1H-pyrro1-2-yl]-7-methoxy-1H-1,3-benzodiazol-1-yl}methyl)azetidin-1-yl]pyrazine-2-carbonitrile] reads 403 nM; that for `COC(=O)Cn1cc(Cn2c(-c3cc4cccnc4n3CC3CC3)nc3cc(C(=O)N4CC5CCC4[C@@H]5N)cc(OC)c32)cn1` (stereo partly drawn) [Example 411, methyl 2-[4-({5-[(7R)-7-amino-2-azabicyclo[2.2.1]heptane-2-carbonyl]-2-[1-(cyclopropylmethyl)-1H-pyrrolo[2,3-b]pyridin-2-yl]-7-methoxy-1H-1,3-benzodiazol-1-yl}methyl)-1H-pyrazol-1-yl]acetate], 55 nM. The result for `COc1cc(C(=O)N2CC3CCC2[C@@H]3N)cc2nc(-c3cc4cccnc4n3CC3CC3)n(Cc3cnn(-c4ccc(O)nc4)c3)c12` (stereo partly drawn) [Example 370, 5-[4-({5-[(7R)-7-amino-2-azabicyclo[2.2.1]heptane-2-carbonyl]-2-[1-(cyclopropylmethyl)-1H-pyrrolo[2,3-b]pyridin-2-yl]-7-methoxy-1H-1,3-benzodiazol-1-yl}methyl)-1H-pyrazol-1-yl]pyridin-2-ol] reads 30 nM. Consider `COc1cc(C(=O)N2CC3CCC2[C@@H]3N)cc2nc(-c3cc4ccccc4n3CC3CC3)n(Cc3cnn(-c4cnc(O)c(F)c4)c3)c12` (stereo partly drawn) [Example 357, 5-[4-({5-[(7R)-7-amino-2-azabicyclo[2.2.1]heptane-2-carbonyl]-2-[1-(cyclopropylmethyl)-1H-indol-2-yl]-7-methoxy-1H-1,3-benzodiazol-1-yl}methyl)-1H-pyrazol-1-yl]-3-fluoropyridin-2-ol], for which the IC50 worked out at 23 nM. With `COc1cc(C(=O)N2C[C@H]3CC[C@@H]2[C@@H]3N)cc2nc(-c3cc4cccnc4n3CC3CC3)n(C[C@H]3CCN(c4cncc(C#N)c4)C3)c12` [Example 195, 5-[(3S)-3-({5-[(1R,4R,7R)-7-amino-2-azabicyclo[2.2.1]heptane-2-carbonyl]-2-[1-(cyclopropylmethyl)-1H-pyrrolo[2,3-b]pyridin-2-yl]-7-methoxy-1H-1,3-benzodiazol-1-yl}methyl)pyrrolidin-1-yl]pyridine-3-carbonitrile], the IC50 is 14 nM.

As to `COc1cc(C(=O)N2C[C@H]3CC[C@@H]2[C@@H]3N)cc2nc(-c3cc4cc(Cl)ccc4n3C)n(CC3CN(c4cncc(C#N)c4)C3)c12` [Example 58, 5-[3-({5-[(1R,4R,7R)-7-amino-2-azabicyclo[2.2.1]heptane-2-carbonyl]-2-(5-chloro-1-methyl-1H-indol-2-yl)-7-methoxy-1H-1,3-benzodiazol-1-yl}methyl)azetidin-1-yl]pyridine-3-carbonitrile], the IC50 was determined as 169 nM. `COc1cc(C(=O)N2C[C@H]3CC[C@@H]2[C@@H]3N)cc2nc(-c3cc4cccnc4n3CC3CC3)n(CC3CN(c4nc(C#N)ncc4C#N)C3)c12` [Example 14, 4-[3-({5-[(1R,4R,7R)-7-amino-2-azabicyclo[2.2.1]heptane-2-carbonyl]-2-[1-(cyclopropylmethyl)-1H-pyrrolo[2,3-b]pyridin-2-yl]-7-methoxy-1H-1,3-benzodiazol-1-yl}methyl)azetidin-1-yl]pyrimidine-2,5-dicarbonitrile]: the IC50 was determined as 46 nM. As for `COc1cc(C(=O)N2CC3CCC2[C@@H]3N)cc2nc(-c3cc4cccnc4n3CC3CC3)n(CC3CCN(c4ccnc(C)n4)CC3)c12` (stereo partly shown) [Example 219], the IC50 turned out to be 67 nM.

Consider `COc1cc(C(=O)N2C[C@H]3CC[C@@H]2[C@@H]3N)cc2nc(-c3cc4ccccc4n3CC3CC3)n(CC3CN(C(=O)c4ccccn4)C3)c12` [Example 167, (1R,4R,7R)-2-{2-[1-(cyclopropylmethyl)-1H-indol-2-yl]-7-methoxy-1-{[1-(pyridine-2-carbonyl)azetidin-3-yl]methyl}-1H-1,3-benzodiazole-5-carbonyl}-2-azabicyclo[2.2.1]heptan-7-amine], for which the IC50 was 31 nM. The result for `CCn1cc(Cn2c(-c3cc4cccnc4n3CC3CC3)nc3cc(C(=O)N4C[C@H](N)C[C@@H](F)C4)cc(OC)c32)cn1` [Example 501, (3R,5R)-1-{2-[1-(cyclopropylmethyl)-1H-pyrrolo[2,3-b]pyridin-2-yl]-1-[(1-ethyl-1H-pyrazol-4-yl)methyl]-7-methoxy-1H-1,3-benzodiazole-5-carbonyl}-5-fluoropiperidin-3-amine] reads 136 nM; that for `COc1cc(C(=O)N2C[C@H]3CC[C@@H]2[C@@H]3N)cc2nc(-c3cc4cccnc4n3C)n(CC3CN(c4cncnc4C#N)C3)c12` [Example 78, 5-[3-({5-[(1R,4R,7R)-7-amino-2-azabicyclo[2.2.1]heptane-2-carbonyl]-7-methoxy-2-{1-methyl-1H-pyrrolo[2,3-b]pyridin-2-yl}-1H-1,3-benzodiazol-1-yl}methyl)azetidin-1-yl]pyrimidine-4-carbonitrile], 373 nM; that for `COc1cc(C(=O)N2C[C@H](N)C[C@@H](F)C2)cc2nc(-c3cc4ccccc4n3CC3CC3)n(Cc3cn(C)nc3C)c12` [Example 512, (3R,5R)-1-{2-[1-(cyclopropylmethyl)-1H-indol-2-yl]-1-[(1,3-dimethyl-1H-pyrazol-4-yl)methyl]-7-methoxy-1H-1,3-benzodiazole-5-carbonyl}-5-fluoropiperidin-3-amine], 373 nM.

Consider `COc1cc(C(=O)N2C[C@H]3CC[C@@H]2[C@@H]3N)cc2nc(-c3cc4cccnc4n3CC3CC3)n(CC3CN(c4nccs4)C3)c12` [Example 47, (1R,4R,7R)-2-{2-[1-(cyclopropylmethyl)-1H-pyrrolo[2,3-b]pyridin-2-yl]-7-methoxy-1-{[1-(1,3-thiazol-2-yl)azetidin-3-yl]methyl}-1H-1,3-benzodiazole-5-carbonyl}-2-azabicyclo[2.2.1]heptan-7-amine], for which the half-maximal inhibitory concentration (IC50) was determined as 119 nM. As for `COc1cc(C(=O)N2C[C@H]3CC[C@@H]2[C@@H]3N)cc2nc(-c3cc4ccccc4n3CC3CC3)n(CC3CN(C(=O)c4ccccc4Cl)C3)c12` [Example 146, (1R,4R,7R)-2-(1-{[1-(2-chlorobenzoyl)azetidin-3-yl]methyl}-2-[1-(cyclopropylmethyl)-1H-indol-2-yl]-7-methoxy-1H-1,3-benzodiazole-5-carbonyl)-2-azabicyclo[2.2.1]heptan-7-amine], the figure is 18 nM. As for `COc1cc(C(=O)N2C[C@H](N)C[C@@H](F)C2)cc2nc(-c3cc4cccnc4n3CC3CC3)n(Cc3cnn(C)c3C)c12` [Example 504, (3R,5R)-1-{2-[1-(cyclopropylmethyl)-1H-pyrrolo[2,3-b]pyridin-2-yl]-l-[(1,5-dimethyl-1H-pyrazol-4-yl)methyl]-7-methoxy-1H-1,3-benzodiazole-5-carbonyl}-5-fluoropiperidin-3-amine], the figure is 158 nM.
